Data on six molecules can be found in US20260263596A1, “Programming B Cells to Produce IL-27 to Treat Inflammatory Diseases” (Board of Regents, The University of Texas System, priority 2022, published 2026).

“Also recorded” adds a separate entry of the source.

Assay [1] relates to STING. The following applies: cited from earlier work.
The test system of assay [2] is B cells. Put plainly: IL-27 induction in B cells by innate priming followed by CD154 or αCD40 plus IL-21. It counts as cell-based, mouse. Conditions: then CD154 or αCD40 plus IL-21; for IL-27 secretion / IL-27 induction by primed B cells: priming with CDN, compared with gold-standard LPS priming; for priming of B cells for induction of Il27p28 and Ebi3: 30 μg/ml for 4 h.

Assay [3] deals with STING (Homo sapiens, UniProt Q86WV6). Conditions: relative to c-di-GMP; cited from earlier work.
Chain of STING (Homo sapiens, UniProt Q86WV6) (Q86WV6 whole entry H232R, species assumed): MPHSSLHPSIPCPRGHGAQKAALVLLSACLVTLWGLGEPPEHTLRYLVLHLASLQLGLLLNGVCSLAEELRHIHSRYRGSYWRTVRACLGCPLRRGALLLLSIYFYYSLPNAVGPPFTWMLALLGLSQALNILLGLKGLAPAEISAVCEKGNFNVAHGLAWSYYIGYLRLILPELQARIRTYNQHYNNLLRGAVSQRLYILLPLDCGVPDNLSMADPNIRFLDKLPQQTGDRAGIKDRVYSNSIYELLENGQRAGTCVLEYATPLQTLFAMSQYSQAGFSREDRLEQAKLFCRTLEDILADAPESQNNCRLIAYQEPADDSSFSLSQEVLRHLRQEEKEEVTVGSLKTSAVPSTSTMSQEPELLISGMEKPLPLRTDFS
For assay [4], the system named is B cells. The following applies: cited from earlier work.
A further assay deals with ILC3s. The assay is described as follows: IL-27 stimulation of in vitro amplified ILC3s, FACS. It counts as cell-based, C57 mice. The source says:
FIG. 5A-5C. […] ILC3s were sort enriched (70%) by surface markers (IL-7R+CD45+Lin−CD117+ST2−) from mesenteric lymph nodes and cultured in the presence of IL-2 and IL-7 (to promote ILC survival) as well as IL-1B plus IL-23 (to promote ILC3 proliferation)—CD117 and ST2 are preferentially, albeit not exclusively, expressed by ILC3s and ILC2s, respectively. After 7 d of culture, ILCs were amplified by >10-fold and accounted for >95% of all cells. After washing to remove cytokines, ILC3s were stimulated with nil, IL-1P/IL-23 (to promote basal IL-22 expression in ILC3s) or IL-27 for 12 h. Cells were analyzed by FACS for expression of (A) T-bet, NKp46 and (B) IL-22, IL-17A and IFNγ, as quantified in (C).
Analyze the impact of recombinant IL-27 (in vitro) and B-27 cells (in vivo) on ILC3 gene protein expression. Tg(Rorc-cre)34 (JAX #022791) and Rosa26fl-STOP-fl-EYFP (JAX #006148) mice will be crossed to generate TgRorc-creRosa26fl-STOP-fl-EYFP mice, which will allow us to sort purify EYFP+IL-7R+CD45+Lin−CD117+ST2−ILC3s. Sorted ILC3s will be cultured in the presence of IL-7 and IL-2, which promote ILC survival, and stimulated them with recombinant IL-27 for 0 h, 6 h, 12 h and 24 h.

The test system of assay [5] is STAT transcription factors. Put plainly: STAT activation by human IL-27. The class given is cell-based.
Where [6] appears, read: enriched, in vitro amplified ILC3s from C57 mice, 12 h.

As to `Nc1nc2c(ncn2[C@@H]2O[C@H](CO)[C@@H](O)[C@H]2OP(=O)(O)OC[C@H]2O[C@@H](n3cnc4c(N)ncnc43)[C@H](O)[C@@H]2OP(=O)(O)O)c(=O)[nH]1` [2′5′-GpAp, linear GMP-AMP], the STING activation entry with STING [1] is recorded as “does not activate STING”. Further, the “IL-27 secretion / IL-27 induction by primed B cells” value (shortened to “IL-27 secretion / IL-27 induction”) in the assay with B cells [2] is “inefficient”.

As for `Nc1ncnc2c1ncn2[C@@H]1O[C@@H]2COP(=O)(O)O[C@H]3[C@@H](O)[C@H](n4cnc5c(N)ncnc54)O[C@@H]3COP(=O)(O)O[C@H]2[C@H]1O` [c-di-AMP, 3′-5′ c-di-AMP], the “affinity to STING” value at STING [3] is reported as “much lower affinity to STING than c-di-GMP”. Further, in the assay on B cells [2], the “IL-27 secretion / IL-27 induction” value is reported as “inefficient”.

As for `Nc1nc2c(ncn2[C@@H]2O[C@@H]3COP(=O)(O)O[C@H]4[C@@H](O)[C@H](n5cnc6c(=O)[nH]c(N)nc65)O[C@@H]4COP(=O)(O)O[C@H]3[C@H]2O)c(=O)[nH]1` [c-di-GMP, 3′-5′ c-di-GMP], in the assay with B cells [2], the “priming of B cells for induction of Il27p28 and Ebi3” value is recorded as “sufficient”; the “IL-27 secretion / IL-27 induction” value was “at the same magnitude as those of IL-27 induced by the gold-standard condition”.

As for cyclic GMP-AMP [cGAMP], in the assay on B cells [2], the “priming of B cells for induction of Il27p28 and Ebi3” value was “sufficient”; the “IL-27 secretion / IL-27 induction” value is “prime B cells for IL-27 induction by CD154; also recorded: at the same magnitude as those of IL-27 induced by the gold-standard condition”.

B1: IL-27: pleiotropic cytokine, heterodimer of IL-27p28 and EBI3 (protein, UniProt Q8NEV9 29-243; Q14213 21-229, looked up)
Interleukin-27 subunit alpha: FPRPPGRPQLSLQELRREFTVSLHLARKLLSEVRGQAHRFAESHLPGVNLYLLPLGEQLPDVSLTFQAWRRLSDPERLCFISTTLQPFHALLGGLGTQGRWTNMERMQLWAMRLDLRDLQRHLRFQVLAAGFNLPEEEEEEEEEEEEERKGLLPGALGSALQGPAQVSWPQLLSTYRLLHSLELVLSRAVRELLLLSKAGHSVWPLGFPTLSPQP
Interleukin-27 subunit beta: RKGPPAALTLPRVQCRASRYPIAVDCSWTLPPAPNSTSPVSFIATYRLGMAARGHSWPCLQQTPTSTSCTITDVQLFSMAPYVLNVTAVHPWGSSSSFVPFITEHIIKPDPPEGVRLSPLAERQLQVQWEPPGSWPFPEIFSLKYWIRYKRQGAARFHRVGPIEATSFILRAVRPRARYYVQVAAQDLTDYGELSDWSLPATATMSLGK
With B1, in the assay on B cells [4], the “STAT1/STAT3 activation, T-bet expression and IFNγ gene signature in B cells” value was “induce STAT1/STAT3 activation, T-bet expression, and IFNγ gene signature”. Further, in the assay on ILC3s (setting [6]), the “IFNγ in ILC3s” value is listed as “did not affect”, the “IL-17 in ILC3s” value is “reduced”, the “expression of IL-22 in ILC3s” value is on record as “upregulated” and the “expression of T-bet in ILC3s” value is given as “upregulated”. Besides, the “polarization of ILC3s to express T-bet and IL-22” value with ILC3s (in vitro) was “polarizes ILC3s to express T-bet and IL-22; also recorded: can polarize ILC3s in vitro to express T-bet and IL-22”.

B2: human IL-27: human cytokine IL-27 (protein, UniProt Q8NEV9 29-243; Q14213 21-229, looked up)
Interleukin-27 subunit alpha: B1 Interleukin-27 subunit alpha
Interleukin-27 subunit beta: B1 Interleukin-27 subunit beta
Take B2: the “activation of STAT transcription factors” value in assay [5] is listed as “can activate STAT transcription factors”.
